Patent US20250144216A1, “NEAR-INFRARED PHOTODYNAMIC THERAPY USING SECOND HARMONIC GENERATION NANOPARTICLE AND VISIBLE LIGHT REACTIVE PHOTOSENSITIZER” (ARIEL SCIENTIFIC INNOVATIONS LTD., priority 2022, published 2025)

Tests used:
[1] = system: S. aureus (ATCC 25923); experiment: Dark toxicity, viability of S. aureus (CFU count); type: cell-based; settings: dark conditions; compared to the control
Protocol: S. aureus (ATCC 25923) were grown on Brain Heart agar plates (BHA, Acumedia, Lansing, MI, USA) for 24 hours. […] 200 μl Cell suspensions in 0.9% saline (10^3-10^4 cells/ml) in sterile saline solution were incubated with 20 μl of PDT nanoparticle conjugates (400 μg/ml) in the dark with shaking for 30 minutes. Subsequently, aliquots of each sample (100 μl) were spread over BHA plates with a Drigalsky spreader and incubated at 37° C. for 24 h. The colony forming units (CFU) were counted using a colony counter Scan 500 (Interscience, Saint-Nom-la-Breteche, France).

[2] = system: S. aureus (ATCC 25923); experiment: microbe, parasite or virus in culture; type: cell-based
Protocol: Laser Setup—Laser was generated using Millennia® Pro s Series 5SJSPG (Spectra physics, USA) laser setup to generate a […] continuous wave laser which was passed through an ultra-fast oscillator Femtosource® Scientific 20 (Femtolasers, Inc.) to generate the Near Infrared (800 nm) pulsed wave (pulse frequency 76.9 MHz) beamline. The beamline was appropriately arranged to provide real-time power readings using a beam splitter. Power measurements were recorded using a compact power meter PM100D (Thorlabs, Inc.) with S370C thermal power head (Thorlabs, Inc.)).
S. aureus (ATCC 25923) were grown on Brain Heart agar plates (BHA, Acumedia, Lansing, MI, USA) for 24 hours. Grown cells were transferred into Brain Heart broth (BH, Acumedia, Lansing, MI, USA) and incubated at 37±1° C. with shaking at 170 rpm until reaching the absorbance A=0.10±0.02 at 660 nm, corresponding to a final concentration of 10^8 cells/ml and diluted appropriately to the final concentration of 10^3-10^4 cells/ml with commercially available sterile 0.9% saline solution before the light and dark phototoxicity assays.
200 μl bacterial suspensions in 0.9% sterile saline solution (10^3-10^4 cells/μl) were incubated with 20 μl of PDT nanoparticle conjugates (400 μg/ml) under laser (800 nm, 232-228 mW,76.9 MHz) with shaking for 10 minutes. […] The CFUwere counted using a colony counter Scan 500.

| SMILES | increase in viability of S. aureus [1] | viability of S. aureus increased by ([2]; 10 minutes pulsed NIR (800 nm) laser exposure) | inhibition at 400 µg/mL ([2]; Staphylococcus aureus, ATCC25923, 10 min, read-out: viability of S. aureus reduced by) |
| --- | --- | --- | --- |
| COc1cc(/C=C/C(=O)CC(=O)/C=C/c2ccc(O)c(OC)c2)ccc1O [Curcumin, curcumin] | 14.2±1.1% | 20.2±1.4% |  |
| C=CC1=C(C)c2cc3[nH]c(cc4nc(cc5[nH]c(cc1n2)c(C)c5CCC(=O)O)C(CCC(=O)O)=C4C)c(C)c3C=C [PPIX, protoporphyrin IX] |  |  | 20.4 ± 2.5% |
